{"source": "patent US20190030182A1", "about": "“WATER-SOLUBLE POLYMER-LINKED BINDING MOIETY AND DRUG COMPOUNDS” (Nektar Therapeutics, priority 2011, published 2019)", "key": {"[1]": {"tested_on": "SKOV-3 cells (Her2 positive)", "assay": "In vitro cytotoxic activity (CytoTox-Glo), SKOV-3", "type": "cell-based", "conditions": "Homo sapiens, SK-OV-3; SKOV3, 48 hours, medium pH 6.5", "description": "(§1) The conjugates were also tested in a Her2 negative cell line, […] as an experimental control. Serial dilutions of the conjugates and control compound were prepared. Cells were lifted from the flask using 2 mL of trypsin for 5 min, neutralized with 8 mL of complete growth medium, and centrifuged at 1200 rpm for 5 min. The supernatant was aspirated and the cell pellet was washed with PBS, centrifuged, then resuspended in complete growth medium (McCoy's for SKOV3 and RPMI-1640 for N87 and SK-N-SH, supplemented with 10% heat inactivated FBS), pH 6.5. Cells were counted, diluted, and then plated in white, clear bottom 96-well plates at a density of 20,000 cells/well, then followed immediately by addition of conjugates and control compound. Cells were incubated with the test articles for 48 hours in a 37° C., 5% CO^2 incubator, and then analyzed for cytotoxic activity using Promega CytoTox-Glo chemiluminescent reagent (Cat#G9291). Signal was quantified with a Perkin Elmer TopCount plate reader, and the data was analyzed using the GraphPad Prism software. FIGS. 4, 5, and 6 are linear regression graphs for each cell line where mean RLU is plotted vs. concentration."}, "[2]": {"tested_on": "SK-N-SH cells (Her2 negative)", "assay": "In vitro cytotoxic activity (CytoTox-Glo), SK-N-SH", "type": "cell-based", "conditions": "Homo sapiens, 48 hours, medium pH 6.5", "description": "as §1"}, "[3]": {"assay": "Body weight in the N87 xenograft study", "type": "in vivo, female SCID mice", "description": "Where: L=length of the tumor in millimeters and W=width of the tumor in millimeters Tumor growth on each animal was monitored to a maximum volume of […]. Animals were weighed prior to implantation and at least twice weekly for the duration of the study.\nMean body weights ranged from 19.6±0.4 g to 20.7±0.5 g (Mean±SEM) on treatment day (FIG. 10). Greatest mean body weight loss observed was 4% in group 3 (docetaxel, 20 mg·kg) on day 4 followed by group 2 (Docetaxel, 10 mg/kg) at 2% observed on days 4 and 7 (FIG. 11). No abnormal clinical observations were noted throughout the study."}, "[4]": {"tested_on": "NCI-N87 cells (Her2 positive)", "assay": "In vitro cytotoxic activity (CytoTox-Glo), NCI-N87", "type": "cell-based", "conditions": "Homo sapiens, N87, 48 hours, medium pH 6.5", "description": "as §1"}, "[5]": {"tested_on": "N87 gastric carcinoma xenografts", "assay": "Antitumor activity in N87 (HER2 overexpressing gastric carcinoma) xenografts", "type": "in vivo, female SCID mice", "conditions": "single i.v.; for Animals with tumors in inhibition (number/group) / Animals with tumors in regression (number/group) / Mean Tumor Growth Inhibition / Regression: Day 35; for Highest Tumor Volume Recorded / Lowest Tumor Volume Recorded / Tumor Volume on Study Termination (Day 35) / Tumor Volume on Treatment Initiation (Day 0): Mean±SEM; for Tumor Volume on Treatment Initiation (Day 0): baseline", "from_the_text": "The objective of this study was to evaluate the antitumor activity of a single administration of anti-HER2 targeted PEG-conjugated docetaxel on N87 gastric carcinoma xenografts in female SCID mice.\nAnimal Husbandry: Female C.B.-17 SCID mice (5-6 weeks old), purchased from Charles River Laboratories were used for this study. Upon arrival, the mice were housed in ventilated polycarbonate cages with sterile bedding at five animals per cage and acclimated for a minimum of three days. The cages were identified by cage labels or tags. Sterilized (autoclaved or irradiated) water and commercial rodent diet were supplied ad libitum. Cages, bedding and water bottles were changed at least once a week and food was replenished as needed. The animals were maintained at a temperature\nTumor Cell Preparation: All handling and preparation of cells were conducted in a biosafety cabinet for sterility and safety. N87, gastric carcinoma cells from the NEKTAR liquid nitrogen freezers were used for this study. The cells were grown in sterile tissue culture flasks with RPMI 1640 media containing 10% Fetal Bovine Serum (FBS) until 85% confluence. To prepare for implantation, the cells in the flasks were rinsed briefly with an appropriate amount of 0.25% trypsin solution. The rinsate was removed and replaced with 2 to 3 mL of fresh 0.25% trypsin solution. The flasks were then placed in a 37′C incubator for 5 minutes. When the cells dissociated, an appropriate amount of complete growth media was added to neutralize the trypsin. The suspension was centrifuged at 1000 rpm for 10 minutes after which the supernatant was discarded. The cells were washed by resuspending the pellet in an appropriate volume of serum free media. A sample was removed for counting and the rest of the suspension was again centrifuged at 1000 rpm for 10 minutes. After centrifugation, the supernatant was discarded and the cell pellet resuspended in serum free media at an appropriate volume determined by the cell count.\nTumor Cell Implantation: All handling of animals and procedures were done in a biosafety cabinet. The animals' flanks were shaved prior to the day of implantation. The mice were anesthetized via isoflurane inhalation, when in proper anesthetic plane; the flanks were wiped with 70% isopropanol followed by implantation of the NCI N87 cells at 1×10^7 cells/site in 0.2 mL volume (in 50% Matrigel®) injected subcutaneous on the right flank of the animals. The animals were distributed accordingly based on the randomization generated by the StudyLog® software.\nTreatment Groups: There were 5 groups with 8 to 10 animals each. Included were vehicle (Saline), Docetaxel at 10 mg/kg and 20 mg/kg, Affibody A-linear 2 kD PEG-docetaxel 10 mg/kg (Example 6) (Docetaxel concentration) and Affibody A-linear 20 kD PEG-docetaxel at 10 mg/kg (Example 6) (Docetaxel concentration) respectively.\nTreatment Administration: The animals were distributed based on the randomization generated by the StudyLog® software. The mean tumor volumes on treatment day (Day 0) ranged from 209±8 mm^3 to 239±15 mm^3 (Mean±SEM). All test articles were diluted in sterile saline to the appropriate concentration and were administered as single dose to the appropriate treatment group via intravenous injection (i.v.). Animals were warmed in clear acrylic hotboxes to facilitate venous dilation. While in the hotboxes, the animals were closely observed for signs of overheating and distress. When the animals were amply warmed, they were removed from the hotboxes and transferred into appropriate mouse restrainers. The tails were wiped with alcohol pads and the test article in a syringe with a 27 gauge needle was injected into the lateral tail vein. Maximum treatment volume for the i.v. injections will not exceed 20 mL/kg.\nTumor Measurements and Body Weights: Tumors size was monitored at least twice weekly. Dimensions (length and the width) were measured using digital calipers. Tumor volume was computed using the formula: […]"}}}
{"smiles": "CC(=O)O[C@@]12CO[C@@H]1C[C@H](O)[C@@]1(C)C(=O)[C@H](O)C3=C(C)[C@@H](OC(=O)[C@H](O)[C@@H](NC(=O)OC(C)(C)C)c4ccccc4)C[C@@](O)([C@@H](OC(=O)c4ccccc4)[C@H]21)C3(C)C", "note": "[Docetaxel, reference compound]", "values": [{"measurement": "EC50", "setting": "[1]", "value": 1.9, "unit": "nM"}, {"measurement": "EC50", "setting": "[2]", "value": 1.97, "unit": "nM"}, {"measurement": "Mean body weight loss", "setting": "[3]; 10 mg/kg, days 4 and 7", "value": 2, "unit": "%"}, {"measurement": "Greatest mean body weight loss", "setting": "[3]; 20 mg·kg, day 4", "value": 4, "unit": "%"}, {"measurement": "EC50", "setting": "[4]", "value": 0.00544, "unit": "nM"}, {"measurement": "Animals with tumors in inhibition (number/group)", "setting": "[5]; Docetaxel Dose 10 mg/kg", "value": "(9/10)"}, {"measurement": "Animals with tumors in regression (number/group)", "setting": "[5]; Docetaxel Dose 10 mg/kg", "value": "(1/10)"}, {"measurement": "Mean Tumor Growth Inhibition", "setting": "[5]; Docetaxel Dose 10 mg/kg", "value": 67.5, "unit": "%"}, {"measurement": "Regression", "setting": "[5]; Docetaxel Dose 10 mg/kg", "value": 26, "unit": "%"}, {"measurement": "Highest Tumor Volume Recorded", "setting": "[5]; Docetaxel Dose 10 mg/kg", "value": "452 ± 80", "unit": "mm^3"}, {"measurement": "Lowest Tumor Volume Recorded", "setting": "[5]; Docetaxel Dose 10 mg/kg", "value": "182 ± 25", "unit": "mm^3"}, {"measurement": "Tumor Volume on Study Termination (Day 35)", "setting": "[5]; Docetaxel Dose 10 mg/kg", "value": "452 ± 80", "unit": "mm^3"}, {"measurement": "Tumor Volume on Treatment Initiation (Day 0)", "setting": "[5]; Docetaxel Dose 10 mg/kg", "value": "224 ± 19", "unit": "mm^3"}, {"measurement": "Animals with tumors in inhibition (number/group)", "setting": "[5]; Docetaxel Dose 20 mg/kg", "value": "(9/10)"}, {"measurement": "Animals with tumors in regression (number/group)", "setting": "[5]; Docetaxel Dose 20 mg/kg", "value": "(1/10)"}, {"measurement": "Mean Tumor Growth Inhibition", "setting": "[5]; Docetaxel Dose 20 mg/kg", "value": 85, "unit": "%"}, {"measurement": "Regression", "setting": "[5]; Docetaxel Dose 20 mg/kg", "value": 10, "unit": "%"}, {"measurement": "Highest Tumor Volume Recorded", "setting": "[5]; Docetaxel Dose 20 mg/kg", "value": "330 ± 33", "unit": "mm^3"}, {"measurement": "Lowest Tumor Volume Recorded", "setting": "[5]; Docetaxel Dose 20 mg/kg", "value": "145 ± 8", "unit": "mm^3"}, {"measurement": "Tumor Volume on Study Termination (Day 35)", "setting": "[5]; Docetaxel Dose 20 mg/kg", "value": "330 ± 33", "unit": "mm^3"}, {"measurement": "Tumor Volume on Treatment Initiation (Day 0)", "setting": "[5]; Docetaxel Dose 20 mg/kg", "value": "225 ± 12", "unit": "mm^3"}]}
